In a melting point compilation (Tetko et al.; mined from patent text by program, amines drawn as free bases though some values may be those of a salt) one finds melting point data, which are given here for 89 compounds.

As for `N#Cc1cnc2sc(Br)cc2c1O`, the melting point (commonly the temperature of the solid-liquid transition) was more than 255 °C.

`COc1c(C(=O)Nc2ccc(N(C(C)=O)S(C)(=O)=O)cc2)cc(N2CCC(=O)NC2=O)cc1C(C)(C)C` gave a melting point of 228 to 229 °C.

In turn, `COc1ccc2[nH]c(SCc3nccc(N4CCOCC4)c3F)nc2c1` registered a melting point of 121 to 123 °C.

As to `CC(C)(O)C(O)c1ccc(C(=O)CCC(=O)/C(=C/C2CCOCC2)c2ccc(S(=O)(=O)C3CC3)cc2)nc1` (centres undefined), the melting point was in the range of 102 to 104 °C.

`CCOC(=O)c1c(C)n(-c2ccccc2)c(C)c(C(=O)OCc2ccccc2)c1=O` came in with a melting point of 142 °C.

In turn, `COc1cc2cc(C#N)c(N)cc2cc1OCc1ccccc1` registered a melting point of 241 to 243 °C.

In the case of `O=S1NC(Cc2ccc3c(Cl)cccc3c2)=NO1` (centres undefined), the melting point lay in the range of 164 to 165 °C.

`N#CNC(=N)NC1CC1`: the melting point was 106 °C.

Compound `CCN(CC)CCOc1ccn2nc(-c3ccccc3)c(-c3ccc(=O)n(C(C)C)n3)c2c1` registered a melting point of 92.5 to 94.5 °C.

For the compound `CCc1cc(C(=O)c2ccccc2Cl)c(-n2c(CNC(=O)c3ccc(Cl)c(Cl)c3)nnc2C(F)(F)F)s1`, the melting point was in the range of 75 to 80 °C.

The compound `O=C(NC(O)C(=O)O)OCc1ccccc1` (centres undefined) gave a melting point of 194 to 198 °C.

In the case of `N#Cc1nn(-c2c(Cl)cc(C(F)(F)F)cc2Cl)c(N)c1-c1cccs1`, the melting point was in the range of 206 to 207 °C.

Turning to `COc1ccc2c(c1)c(CC(=O)O)c(C)n2C(=O)c1ccccc1`, the melting point lay in the range of 158 to 160 °C.

Turning to `COc1ccc2ccc3c4cc5c(cc4nnc3c2c1)OCO5`, the melting point is 259 to 261 °C.

On to `CCOC(=O)c1nsc(Br)c1O`, for which the melting point was 44 to 47 °C.

Take `CCCc1nc(CSc2ccc(CCC(=O)O)cc2)c(C(=O)O)n1Cc1cc2c(cc1Cl)OCO2`: the melting point was 171 °C.

For the compound `CC(=O)NC(=S)NC1CC2c3cccc4[nH]cc(c34)CC2N(C)C1` (centres undefined), the melting point lay in the range of 240 to 242 °C.

For the compound `CCCC(C(N)=O)C(=O)O` (centres undefined), the melting point is 137 °C.

Take `COc1nc(NC(=O)NS(=O)(=O)c2ccccc2OC(Cl)=CCl)nc(OC)n1`: the melting point is 199 to 200 °C.

As to `Cc1c(N)cc(C(C)(C)C)c2c1CC(C)(C)O2`, the melting point is 115 to 116 °C.

`CCN(C)c1ccc2c(c1)CN(c1cccc(Br)c1COC(C)=O)C2=O` had a melting point of 97 to 99 °C.

With `CNC(=C[N+](=O)[O-])NCCSCc1csc(CN2CCCCC2)n1`, the melting point is 100 to 103 °C.

`COc1cc(-c2cccc(Cl)c2)c2cc(Br)ccc2n1` had a melting point of 124 °C.

Compound `c1cn(CCC23CC4CC(CC(C4)C2)C3)cn1` had a melting point of 64 to 65 °C.

For the compound `COc1ccc(Cl)cc1[C@]1(F)C(=O)N(C(=O)N[C@H](C(=O)O)C(C)C)c2cc(C(F)(F)F)ccc21`, the melting point lay within 100 to 104 °C.

In the case of `O=S(=O)(c1ccc(Cl)cc1)C(c1cc(F)ccc1F)c1cc(NCCc2ccncc2)ncc1Cl` (centres undefined), the melting point lay in the range of 148 to 150 °C.

Turning to `Cc1oc(-c2ccc(F)cc2)nc1COc1cccc2cc(NS(=O)(=O)C(F)(F)F)ccc12`, the melting point was 178 to 180 °C.

The compound `CC12CCC(O)CC1=CCC1C2CCC2(C)C(c3cccnc3)=CCC12` (centres undefined) gave a melting point of 214 to 218 °C.

Compound `Cc1cc(C)nc(OC(C(=O)O)c2ccccc2)n1` (centres undefined) displayed a melting point of 148 °C.

`CN1CCN(c2ccc(/C=C/c3cc(/C=C/c4ccc5cc[nH]c5c4)[nH]n3)c(Br)c2)CC1` came in with a melting point of 120 to 124 °C.

For the compound `CCOC(=O)c1nnc2ccc(NC(=O)NC(Cc3ccccc3)C(=O)OC)cc2c1O` (centres undefined), the melting point lay within 242 to 243 °C.

For `COc1cc(NC2=C(Cl)C(=O)c3ccccc3C2=O)ccc1S(=O)(=O)Nc1cccc(C)c1`, the melting point lay within 286 to 288 °C.

As to `CCC(=O)Nc1ccc(C2=NNC(=O)C3CC23)cc1` (centres undefined), the melting point lay in the range of 268 to 270 °C.

`O=C1c2ccccc2C(=O)N1OCc1cc(Cl)c2c(c1Cl)OC(c1ccccc1)(c1ccccc1)O2`: the melting point lay within 127 to 129 °C.

`NS(=O)(=O)c1ccc(-c2c(-c3ccccc3)noc2COCC(F)(F)C(F)(F)C(F)(F)CO)cc1`: the melting point is 50 to 51 °C.

The compound `Nc1ncnc2c1c(-c1ccc(Oc3ccccc3)cc1)cn2C1CCC(=O)CC1` came in with a melting point of 252 to 254 °C.

Turning to `Nc1cc2n(n1)CCOC2`, the melting point is 74 to 76 °C.

As for `CC(=N)NC/C(F)=C\CC[C@H](N)C(=O)O`, the melting point was 51.5 to 56.3 °C.

Turning to `O=S1(=O)c2sccc2C=C(CO)N1CCO`, the melting point fell in the range of 81 to 83 °C.

Regarding `FC(F)(F)c1cccc(Oc2ccnc(-n3ccc(C(F)(F)F)n3)n2)c1`, the melting point lay within 72 to 73 °C.

In turn, `Cc1cc(C)c2nsnc2c1[N+](=O)[O-]` displayed a melting point of 105 to 106 °C.

As to `COc1ccc2c3ccnc(C)c3n(CCCc3ccccc3)c2c1`, the melting point lay within 117 to 118 °C.

With `COc1cc(C(=O)CCc2ccccc2)c2c(c1OC)C(=O)CC2`, the melting point was 144 to 146 °C.

In turn, `CC1=C(n2ccccc2=O)c2cc([N+](=O)[O-])ccc2OC1(C)C` had a melting point of 200 °C.

As for `COC(=O)c1cc2c(N3CCN(CCC(C(=O)N4CCCCCC4)c4ccccc4)CC3)cccc2[nH]1` (centres undefined), the melting point lay within 152 to 168 °C.

Compound `CC1CCc2ncc(C(N)=O)c(=O)n21` (centres undefined) yielded a melting point of 191 °C.

`CC1(C)Nc2ncc(I)cc2NC1=O`: the melting point was more than 300 °C.

`COc1cc(Nc2ncnc3cc(OCCCc4ccncc4)c(OC)cc23)c(OC)cc1Cl` showed a melting point of 205 to 208 °C.

`CCOc1c(OC)cc(C)c(C(=O)c2c(OC)ccc(Cl)c2C)c1OC` registered a melting point of 131 to 132 °C.

Compound `Cn1c(CC#N)cc(Cl)c1C(=O)c1ccc(Cl)cc1` gave a melting point of 139 to 142 °C.

Compound `Cc1cc(O)c2c(c1)C(C)(C)CCC2(C)C` displayed a melting point of 133 to 134 °C.

As to `COc1ccc(C(C)=NOCc2cccc(F)c2)cc1F`, the melting point stood at 67 °C.

As to `CCCc1nc2c(N)nc3cc(OCc4ccccc4)ccc3c2n1CC(C)C`, the melting point lay in the range of 206 to 208 °C.

`CNc1nc(F)c(OC(F)F)c(Cl)n1` showed a melting point of 57 to 61 °C.

With `COc1ccc2c(c1)CC(C(=O)O)N2C(C)=O` (centres undefined), the melting point lay within 164 to 167 °C.

With `Cc1cc(-c2cc(O)c(SCCc3ccccc3)c(=O)o2)ccc1OCc1ccccc1`, the melting point fell in the range of 147 to 148 °C.

Consider `CC(C)CC(C(=O)O)N(C)C(C)C` (centres undefined), for which the melting point lay in the range of 159 to 160 °C.

The compound `O=C(N[C@H]1CC[C@H](CCN2CCC(c3cccc4c3CCO4)CC2)CC1)c1ccccc1` returned a melting point of 220 °C.

The compound `CCCCCCCCCCCCCCC(=O)Nc1ccn(C2OC(CO)C(O)C2O)c(=O)n1` (centres undefined) displayed a melting point of 142 to 145 °C.

Turning to `CCOC(=O)C1Cc2ccc(OC)c(Cl)c2O1` (centres undefined), the melting point lay within 108 to 110 °C.

For `O=C1c2cc(Cl)ccc2N(N2CCCCC2)C2=NCCN12`, the melting point is 192 to 193 °C.

As for `COc1ccc(-c2c(-c3ccc(S(C)(=O)=O)cc3)n(C)n(C)c2=O)cc1`, the melting point is 245 to 247 °C.

`CCn1c(=N)c(-c2c(Cl)cccc2Cl)cc2cnc(SC)nc21` had a melting point of 217 to 219 °C.

The compound `S=c1nc(-c2cc(Cl)cc(Cl)c2)[nH]n1Cc1ccccc1` displayed a melting point of 205 to 212 °C.

The compound `O=C(CCl)Nc1ccc2c(c1NC(=O)Cc1ccc(F)cc1)C(=O)c1ccccc1C2=O` gave a melting point of 213 to 214 °C.

For `CCOP(=O)(COc1ccc(-c2c3ccccc3cc3sc4ccccc4c23)cc1)OCC`, the melting point was 129 to 130 °C.

`CC1CCNC(C)C1(C)CCCO` (centres undefined): the melting point was 89 to 91 °C.

In turn, `CN1C(=O)CC[C@]2(C)c3ccc(-c4cc(C(C)(C)C)c(O)c(C(C)(C)C)c4)cc3CC[C@@H]12` yielded a melting point of more than 265 °C.

For the compound `O=[N+]([O-])c1cc(CN(CCN=C=S)CCN=C=S)cc(CN(CCN=C=S)CCN=C=S)c1`, the melting point is 62 to 64 °C.

Turning to `CCOc1nc(N)c2ncn(C3CCCCC3)c2n1`, the melting point lay within 134 to 136 °C.

The compound `O=C(Nc1ccc(C(F)(F)F)cc1)Nc1ccc2c(c1)OC(F)(F)O2` returned a melting point of 195 to 200 °C.

Compound `Cc1ccc(NC(=O)C2C(=O)N(C)c3ccccc3S2(=O)=O)cc1` (centres undefined) gave a melting point of 218 to 220 °C.

`CCc1cc(O)cc(C)c1N` displayed a melting point of 167 to 170 °C.

The compound `CCn1c2ccc(I)cc2c2cc(I)ccc21` came in with a melting point of 75 to 79 °C.

As to `CC1(C)CCCN(C(=O)CN2C(=O)C(NC(=O)Nc3cccc(C(=O)OC(C)(C)C)c3)C(=O)N(c3ccccc3F)c3ccccc32)C1` (centres undefined), the melting point amounted to 170 °C.

The compound `COc1nc(CCc2cc(Br)ccc2OCc2ccccc2)ccc1C(=O)O` returned a melting point of 141 to 143 °C.

In turn, `Cc1ccccc1N1CCc2c(N(C)C)nc3c(C)cccc3c21` yielded a melting point of 120 to 121 °C.

On to `COC(=O)c1cc(C(=O)O)cc(-c2cc(Cl)ccc2Cl)c1`, for which the melting point is 222 to 224 °C.

`Cc1ccc2c(c1)C1CN(CCCC(=O)c3ccc(F)cc3)CCC1N2C` (centres undefined) registered a melting point of 140 to 145 °C.

`CN1C2CCC1CC(N(C)S(=O)(=O)c1ccc(Nc3nccc(Nc4ccc(F)cc4)n3)cc1)C2` (centres undefined) registered a melting point of 184 °C.

On to `CC(=O)Nc1ccc(Oc2ccc(S(C)=O)cc2)cc1` (centres undefined), for which the melting point was 159 to 161 °C.

`CCOC(=O)C1(Cc2ccc(OC)c(OC)c2)C(=O)NCC1c1ccc2c(c1)OCO2` (centres undefined) came in with a melting point of 167 to 168 °C.

The compound `CNc1nc(C)c(-c2cn3cc(Cl)ccc3n2)s1` returned a melting point of 242 to 243 °C.

In the case of `COC(=O)C1(NS(=O)(=O)c2ccc3c(Cl)cnc(NC(=N)N)c3c2)CCOCC1`, the melting point was in the range of 245 to 247 °C.

Compound `CC(C)(CO)NCC(=O)N1C[C@@H](F)C[C@H]1C#N` displayed a melting point of 146 to 148 °C.

`CCCCNC(=O)[C@@H](C[C@H](O)[C@@H](N)CC1CCCCCC1)C(C)C`: the melting point fell in the range of 81 to 82 °C.

`Cc1oc(-c2ccccc2)nc1COc1cc(COc2nn(C)cc2CC(=O)O)ccn1` displayed a melting point of 126 to 127 °C.

In turn, `CC(C)(C)OC(=O)Nc1ccc([N+](=O)[O-])cc1` gave a melting point of 112 to 114 °C.

With `COc1ccc([C@@H]2CCCC[C@@H]2[N+](=O)[O-])cc1OC` (racemic), the melting point was 84 to 86.5 °C.
